For the experiment, the target named is human OX2R (Homo sapiens (Human), UniProt O43614). Kind of experiment: IPOne (IP-1) assay in CHO cells expressing human OX2R. It counts as cell-based. As to conditions: for Emax: CHO, read-out: Emax (%); for IC50: CHO cells expressing human OX2R, IP-One detection, 2 hours incubation, EC50 = inflection point of four parameter logistic fit, read-out: hOX2R_IP_IC50. Summed up: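 CHO cells stably expressing human OX2R were stimulated with compound (10-point ½-log dilutions) for 2 h at 37 °C. IP-1 accumulation was read by HTRF (IP-One, 665/620 nm). EC50 from a four-parameter fit; % effect relative to 1 μM reference agonist control.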
human OX2R, sequence (O43614 whole entry): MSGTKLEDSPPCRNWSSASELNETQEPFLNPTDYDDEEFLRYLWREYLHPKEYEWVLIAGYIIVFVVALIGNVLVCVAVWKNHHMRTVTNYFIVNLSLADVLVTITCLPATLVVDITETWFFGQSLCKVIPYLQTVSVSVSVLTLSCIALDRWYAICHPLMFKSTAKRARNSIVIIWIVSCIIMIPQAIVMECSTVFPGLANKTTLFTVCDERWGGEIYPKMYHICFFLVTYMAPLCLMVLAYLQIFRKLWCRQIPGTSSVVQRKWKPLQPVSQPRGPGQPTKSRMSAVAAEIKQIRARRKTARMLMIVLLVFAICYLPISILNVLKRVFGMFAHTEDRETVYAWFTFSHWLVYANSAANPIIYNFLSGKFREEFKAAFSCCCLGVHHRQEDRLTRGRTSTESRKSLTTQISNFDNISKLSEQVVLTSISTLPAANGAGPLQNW

Setting [1] is: percentage of mean max effect of a reference compound at 1 uM (100% activity by comparison to Orexin A), human OX2R.

The record followed here is patent publication US11680060B2, “Bicycloheptane pyrrolidine orexin receptor agonists” (Merck Sharp & Dohme LLC, priority 2020, dated 2023).

Molecules are shown by their SMILES.

Usually Emax stands for the maximal effect, on the per cent scale that the assay sets. `COC(=O)N1[C@H](C)C[C@H](NS(C)(=O)=O)[C@@H]1CO[C@H]1CC[C@@]2(c3ncc(F)cn3)C[C@H]2C1` [Example 137, methyl (2R,3S,5R)-2-((((1S,3S,6R)-6-(5-fluoropyrimidin-2-yl)bicyclo[4.1.0]heptan-3-yl)oxy)methyl)-5-methyl-3-(methylsulfonamido)pyrrolidine-1-carboxylate]: the maximum response (Emax) under setting [1] is 101%.
Still for that read-out and setting: in the case of `COC(=O)N1[C@@H]2COC[C@@H]2C(NS(C)(=O)=O)[C@@H]1COC1CCC2(c3ncc(F)cn3)CC2C1` (mixture of isomers) [Example 134, Methyl (2R,3aS,6aS)-2-(((6-(5-fluoropyrimidin-2-yl)bicyclo[4.1.0]heptan-3-yl)oxy)methyl)-3-(methylsulfonamido)hexahydro-1H-furo[3,4-b]pyrrole-1-carboxylate] it was 99.7%.
Take `COC(=O)N1[C@H](C)C[C@H](NS(C)(=O)=O)[C@@H]1CO[C@@H]1CC[C@]2(c3ncc(C)cn3)C[C@@H]2C1` (single isomer, unassigned) [Example 155]: the IC50 stood at 717 nM. Also, the Emax under setting [1] was found to be 54.3%.
For `COC(=O)N1[C@H](C)C[C@H](NS(=O)(=O)CC(C)C)[C@@H]1CO[C@H]1CC[C@@]2(c3ncc(F)cn3)C[C@H]2C1` [Example 35, methyl (2R,3S,5R)-2-((((1S,3S,6R)-6-(5-fluoropyrimidin-2-yl)bicyclo[4.1.0]heptan-3-yl)oxy)methyl)-5-methyl-3-((2-methylpropyl)sulfonamido)pyrrolidine-1-carboxylate], under setting [1], the Emax came to 101%.
On the same count and under the same terms, in the case of `COC(=O)N1[C@H](C)C[C@H](NS(=O)(=O)Cc2ccccc2)[C@@H]1CO[C@H]1CC[C@@]2(c3ncc(F)cn3)C[C@H]2C1` [Example 34, methyl (2R,3S,5R)-2-((((1S,3S,6R)-6-(5-fluoropyrimidin-2-yl)bicyclo[4.1.0]heptan-3-yl)oxy)methyl)-5-methyl-3-((phenylmethyl)sulfonamido)pyrrolidine-1-carboxylate] it was 96.5%.
As to `C[C@@H]1C[C@H](NS(C)(=O)=O)[C@H](CO[C@H]2CC[C@@]3(c4ncc(F)cn4)C[C@H]3C2)N1C(=O)OCC1CC1(F)F` (stereo partly drawn) [Example 59, (2,2-difluorocyclopropyl)methyl (2R,3S,5R)-2-((((1S,3S,6R)-6-(5-fluoropyrimidin-2-yl)bicyclo[4.1.0]heptan-3-yl)oxy)methyl)-5-methyl-3-(methylsulfonamido)pyrrolidine-1-carboxylate], under setting [1], the Emax was 104%.
Still for that read-out and setting: in the case of `CC(C)OC(=O)N1[C@H](C)C[C@H](NS(=O)(=O)CF)[C@@H]1COC1CCC2(c3ncc(F)cn3)CC2C1` (stereo partly drawn) [Example 111, isopropyl (2R,3S,5R)-3-((fluoromethyl)sulfonamido)-2-(((6-(5-fluoropyrimidin-2-yl)bicyclo[4.1.0]heptan-3-yl)oxy)methyl)-5-methylpyrrolidine-1-carboxylate] it was 98.5%.
Regarding `CC(C)OC(=O)N1[C@H](C)C[C@H](NS(=O)(=O)C(F)F)[C@@H]1COC1CCC2(c3ncc(F)cn3)CC2C1` (single isomer, unassigned) [Example 93], the IC50 was 458 nM. Also, the “Emax (%)” value under setting [1] was 40.6%.
As for `CCS(=O)(=O)N[C@H]1C[C@@H](C)N(C(=O)OC)[C@H]1CO[C@H]1CC[C@@]2(c3ncc(F)cn3)C[C@H]2C1` [Example 36, methyl (2R,3S,5R)-3-(ethylsulfonamido)-2-((((1S,3S,6R)-6-(5-fluoropyrimidin-2-yl)bicyclo[4.1.0]heptan-3-yl)oxy)methyl)-5-methylpyrrolidine-1-carboxylate], the Emax under setting [1] came to 102%.
With `COC(=O)N1CC[C@H](NS(C)(=O)=O)[C@@H]1CO[C@H]1CC[C@@]2(c3ncccn3)C[C@H]2C1` (single isomer, unassigned) [Example 177], the IC50 turned out to be 238 nM. Further, under setting [1], the Emax was 99.8%.
For `C[C@@H]1C[C@H](NS(C)(=O)=O)[C@H](CO[C@H]2CC[C@@]3(c4ncc(F)cn4)C[C@H]3C2)N1C(=O)OC[C@H]1C[C@H]1F` [Example 51, ((1R,2R)-2-fluorocyclopropyl)methyl (2R,3S,5R)-2-((((1S,3S,6R)-6-(5-fluoropyrimidin-2-yl)bicyclo[4.1.0]heptan-3-yl)oxy)methyl)-5-methyl-3-(methylsulfonamido)pyrrolidine-1-carboxylate], under setting [1], the Emax came to 102%.
Turning to `COC(=O)N1[C@H](C(F)F)C[C@H](NS(=O)(=O)C(F)F)[C@@H]1CO[C@H]1CC[C@@]2(c3ncc(F)cn3)C[C@H]2C1` (single isomer, unassigned) [Example 112], the IC50 is 0.78 nM. The maximum response (Emax) under setting [1] came out at 100%.
